In PMC11239830, “Synthetic macrolides overcoming MLSBK-resistant pathogens” (Cell Discovery, 2024):
Converted amounts (≈) assume the structure as drawn. Like-named read-outs stand apart in the source and are kept apart here. Each block holds one molecule with its values, some of them ahead of it.

What was measured:
S. pneumoniae = assay: MIC, broth microdilution; type: cell-based, Streptococcus pneumoniae
In short: (§1)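 Incubation ran for 16–20 h at 37 °C after setup per Clinical and Laboratory Standards Institute microdilution procedure. Growth was then observed to assign the MIC. Assays were replicated at least three times.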

S. pyogenes = assay: MIC, broth microdilution; type: cell-based, Streptococcus pyogenes
In short: as §1

H. influenzae = assay: MIC, broth microdilution; type: cell-based, Haemophilus influenzae; details: Haemophilus influenzae, ATCC49247, H. influenzae ATCC49247, Azi-S; read-out: MIC
In short: as §1

M. catarrhalis = assay: MIC, broth microdilution; type: cell-based, Moraxella catarrhalis; details: Moraxella catarrhalis; M. catarrhalis 13L332, Ery-S; read-out: MIC
Procedure: MICs were determined by the microdilution method according to the Clinical and Laboratory Standards Institute guidelines. Briefly, the stock solution of compounds and the reference antibiotics were diluted 2-fold in sterile 96-well plates with cation-adjusted Mueller-Hinton broth, and mixed with CAMHB-containing bacteria to give a final inoculum of 5 × 10^5 CFU/mL for broth microdilution experiments. […] Finally, the 96-well plates were incubated at 37 °C for 16–20 h to observe and record the results. The lowest concentration at which no bacterial growth could be observed visually was identified as the MICs of the compounds. The assay for MICs was replicated at least three times.

[1] = In vivo pharmacokinetic study; set-up: species or system SD rats; details: SD (Sprague-Dawley), rat, iv, plasma
Procedure: The SD rats were fasted overnight and dosed i.v. at a dose of 5 mg/kg in a solution of DMSO/PEG 400/water (5%/24%/71%). The whole blood was collected into tubes containing sodium heparin at 0.083 h, 0.25 h, 0.5 h, 1 h, 2 h, 4 h, 8 h and 24 h after dosing. After centrifugation of 6000 rpm for 10 min at 4 °C, plasma samples were transferred into 1.5 mL tubes and stored at –20 °C. Prior to analysis, the samples were thawed on ice. An amount of 50 μL of each plasma sample was added to a mixture of 50 μL of propranolol (300 ng/mL) and 100 μL of acetonitrile and centrifuged at 12,000 rpm at 4 °C for 10 min. The supernatant was diluted and analyzed by LC-MS/MS. The liquid chromatography was conducted on a Thermo Scientific Q Exactive HF-X (ThermoFisher Scientific, USA) instrument, employing an ACQUITY UPLC BEH C18 Column with dimensions of 130 Å, 1.7 µm, 2.1 mm × 100 mm. The liquid phase method employed gradient elution with mobile phases consisting of acetonitrile and an 0.1% aqueous formic acid solution. Mass spectrometry was conducted in positive ion mode. The quantification of drug concentration in plasma samples was performed using the internal standard method, and the obtained pharmacokinetic parameters were calculated using Phoenix WinNonlin software.

S. aureus = assay: MIC, broth microdilution; type: cell-based, Staphylococcus aureus; details: Staphylococcus aureus, read-out: MIC
In short: as §1

human ribosome = tested on: human ribosome; set-up: method as in PMID 32601485; details: read-out: IC50, inhibition on human ribosome; cited from earlier work
[2] = tested on: 15B196 S. aureus ribosomes (A2058-methylated); assay: PURE in vitro translation inhibition assay; type: biochemical, Staphylococcus aureus; details: mean ± SD
Procedure: (§2) To validate the in vitro activity of our compounds, we employed an in vitro reconstituted E. coli Protein synthesis Using a Recombinant Elements (PURE) translation system, substituting E. coli ribosomes with the purified S. aureus ribosomes.
(§3) 5 μL of PURE reaction mix that translates a gene encoding the Nanoluc luciferase was set up in the presence or absence of tested compounds. Protein synthesis was initiated by incubating reactions at 37 °C for 60 min and stopped by placing on ice for 5 min. Luciferase activity was quantified using the Nano-Glo luciferase assay system and read on a GloMax 20/20 luminometer (Promega, USA). For each compound, the in vitro translation inhibition assay was performed in three biological triplicates over a range of concentrations from 0.001 μM to 1000 μM. A compound-free control was used to normalize luminescence measurements. The calculated luminescence percentages were plotted against compound concentrations on a semilog scale using GraphPad Prism.

WT S. aureus ribosomes = assay: PURE in vitro translation inhibition assay; type: biochemical, Staphylococcus aureus; details: mean ± SD
Procedure: as §2, §3

[3] = CCK-8 assay for cytotoxicity; type: cell-based, human; details: human, HEK293T cells, HEK293T cell viability
Procedure: HepG2 cells (6 × 10^3) and HEK293T cells (4 × 10^3) were seeded into 96-well plates in 90 μL of DMEM medium containing 10% FBS per well. […] After overnight incubation, the test compound stock solution was diluted with DMEM medium containing 10% FBS to every target concentration, and 10 μL of each was added to each well. Three parallel experiments were set up for each compound. After incubation for 48 h, 10 μL of cell counting kit-8 (CCK-8) reagent was added to each well in sequence according to the manufacturer’s instructions. […] This experiment was independently repeated three times. The data were processed by GraphPad Prism.

[4] = Streptococcus pneumoniae, ATCC49619, S. pneumoniae ATCC49619, Ery-S, read-out: MIC
[5] = Streptococcus pneumoniae, S. pneumoniae 07P390, c-ermB, read-out: MIC
[6] = Streptococcus pyogenes, S. pyogenes 12-206, c-ermTR, read-out: MIC

melting point: 144.6 to 145.2 °C
Structure (SMILES): CCC1OC(=O)C(C)C(OC(=O)NCCCOCCC#Cc2ccc3c(=O)c(C(=O)O)cn(C4CC4)c3c2)C(C)C(OC2OC(C)CC(N(C)C)C2O)C(C)(OC)CC(C)C(=NOC)C(C)C2OC(=O)OC12C (stereo not shown) (hydrate or solvate) [72c]

melting point: 141.1 to 142 °C
Structure (SMILES): CCOC(=O)c1cn(C)c2cc(C#CCCCCCCNC(=O)O[C@H]3[C@H](C)[C@@H](O[C@@H]4O[C@H](C)C[C@H](N(C)C)[C@H]4O)[C@](C)(OC)C[C@@H](C)C(=O)[C@H](C)[C@H]4NC(=O)O[C@]4(C)[C@@H](CC)OC(=O)[C@@H]3C)ccc2c1=O (hydrate or solvate) [88h]

melting point: 162.9 to 166 °C
Structure (SMILES): CC[C@H]1OC(=O)[C@H](C)[C@@H](OC(=O)NCCCCCCC#Cc2ccc3c(=O)c(C(=O)O)c[nH]c3c2)[C@H](C)[C@@H](O[C@@H]2O[C@H](C)C[C@H](N(C)C)[C@H]2O)[C@](C)(OC)C[C@@H](C)C(=O)[C@H](C)[C@H]2NC(=O)O[C@@]21C (hydrate or solvate) [88i]

melting point: 163.6 to 163.9 °C
Structure (SMILES): CC[C@H]1OC(=O)[C@H](C)[C@@H](OC(=O)NCCCOCCC#Cc2ccc3c(=O)c(C(=O)O)cn(C4CC4)c3c2)[C@H](C)[C@@H](O[C@@H]2O[C@H](C)C[C@H](N(C)C)[C@H]2O)[C@](C)(OC)C[C@@H](C)C(=O)[C@H](C)[C@H]2NC(=O)O[C@@]21C (hydrate or solvate) [95c]

melting point: 163.7 to 164.9 °C
Structure (SMILES): CC[C@H]1OC(=O)[C@H](C)[C@@H](OC(=O)NCCCOCCC#Cc2ccc3c(=O)c(C(=O)O)c[nH]c3c2)[C@H](C)[C@@H](O[C@@H]2O[C@H](C)C[C@H](N(C)C)[C@H]2O)[C@](C)(OC)C[C@@H](C)C(=O)[C@H](C)[C@H]2NC(=O)O[C@@]21C (hydrate or solvate) [95i]

melting point: 172.1 to 173.5 °C
Structure (SMILES): CC[C@H]1OC(=O)[C@H](C)[C@@H](OC(=O)NCCCCOCCC#Cc2ccc3c(=O)c(C(=O)O)cn(C)c3c2)[C@H](C)[C@@H](O[C@@H]2O[C@H](C)C[C@H](N(C)C)[C@H]2O)[C@](C)(OC)C[C@@H](C)C(=O)[C@H](C)[C@H]2NC(=O)O[C@@]21C (hydrate or solvate) [96g]

Structure (SMILES): CC[C@H]1OC(=O)[C@H](C)[C@@H](OC(=O)NCCCOCCC#Cc2ccc3c(=O)c(C(=O)O)cn(C)c3c2)[C@H](C)[C@@H](O[C@@H]2O[C@H](C)C[C@H](N(C)C)[C@H]2O)[C@](C)(OC)C[C@@H](C)C(=O)[C@H](C)[C@H]2NC(=O)O[C@@]21C (hydrate or solvate) [MCX-190]
melting point: 157.9 to 158.8 °C

Structure (SMILES): CC[C@H]1OC(=O)[C@H](C)[C@@H](OC(=O)NCCCCCCC#Cc2ccc3c(=O)c(C(=O)O)cn(C)c3c2)[C@H](C)[C@@H](O[C@@H]2O[C@H](C)C[C@H](N(C)C)[C@H]2O)[C@](C)(OC)C[C@@H](C)C(=O)[C@H](C)[C@H]2NC(=O)O[C@@]21C (hydrate or solvate) [MCX-219]
melting point: 179.5 to 180.3 °C

MIC (S. pneumoniae; [4]): ≤ 0.008 µg/mL | MIC (S. pneumoniae; Streptococcus pneumoniae, S. pneumoniae 05O173, c-ermB, mef, read-out: MIC): 64 µg/mL (≈ 64.3 µM) | MIC (S. pneumoniae; [5]): 0.5 µg/mL (≈ 0.502 µM) | MIC (S. pyogenes; [6]): 2 µg/mL (≈ 2.01 µM) | MIC (H. influenzae): 32 µg/mL (≈ 32.2 µM) | MIC (M. catarrhalis): 4 µg/mL (≈ 4.02 µM) | Cmax ([1]; male SD rats, i.v. 5 mg/kg): 2650 ± 250 ng/mL | MRT ([1]; male SD rats, i.v. 5 mg/kg): 1.64 ± 0.665 h | Tmax ([1]; male SD rats, i.v. 5 mg/kg): 4.8 min | half-life ([1]; male SD rats, i.v. 5 mg/kg): 2.63 ± 1.3 h | AUC(0-inf) ([1]; male SD rats, i.v. 5 mg/kg, mean ± SD, n 3): 1790 ± 90 ng·h/mL | AUC(0-t) ([1]; male SD rats, i.v. 5 mg/kg, read-out: AUC0-24): 1760 ± 100 ng·h/mL | clearance ([1]; male, 5 mg/kg): 46.5 mL/min/kg
Structure (SMILES): CCOC(=O)c1cn(C)c2cc(C#CCCCCCCNC(=O)O[C@H]3[C@H](C)[C@@H](O[C@@H]4O[C@H](C)C[C@H](N(C)C)[C@H]4O)[C@](C)(OC)C[C@@H](C)C(=O)[C@H](C)[C@H]4NC(=O)O[C@]4(C)[C@@H](CC)OC(=O)[C@@H]3C)ccc2c1=O [88h]

MIC (S. pneumoniae; [4]): 0.5 µg/mL (≈ 0.503 µM) | MIC (S. pneumoniae; [5]): 2 µg/mL (≈ 2.01 µM) | MIC (S. pneumoniae; Streptococcus pneumoniae, S. pneumoniae PU09, mef, read-out: MIC): 0.5 µg/mL (≈ 0.503 µM) | MIC (S. pyogenes; [6]): 2 µg/mL (≈ 2.01 µM) | MIC (S. aureus; S. aureus 15B196, c-ermB): 256 µg/mL (≈ 257 µM) | MIC (S. aureus; S. aureus PU32, i-ermA): 4 µg/mL (≈ 4.02 µM) | MIC (H. influenzae): 64 µg/mL (≈ 64.4 µM) | melting point: 148.6 to 149.5 °C
Structure (SMILES): CC[C@H]1OC(=O)[C@H](C)[C@@H](OC(=O)NCCCNCCC#Cc2ccc3c(=O)c(C(=O)O)cn(C4CC4)c3c2)[C@H](C)[C@@H](O[C@@H]2O[C@H](C)C[C@H](N(C)C)[C@H]2O)[C@](C)(OC)C[C@@H](C)C(=O)[C@H](C)[C@H]2NC(=O)O[C@@]21C [98c]

Structure (SMILES): COC(=O)c1c(OC)cc2cc3c(c(O)c2c1C)C(=O)[C@]1(OC)C(=O)C=C(OC)[C@@H](O)[C@]1(O)C3=O [TcmX, tetracenomycin X]
IC50 (human ribosome): 10 µM

Structure (SMILES): CC[C@H]1OC(=O)[C@H](C)[C@@H](O[C@H]2C[C@@](C)(OC)[C@@H](O)[C@H](C)O2)[C@H](C)[C@@H](O[C@@H]2O[C@H](C)C[C@H](N(C)C)[C@H]2O)[C@](C)(O)C[C@@H](C)C(=O)[C@H](C)[C@@H](O)[C@]1(C)O [erythromycin, reference compound]
MIC (S. pneumoniae; S. pneumoniae 21Q352, Clinical, i-MLSB): 64 µg/mL (≈ 87.2 µM) | MIC (S. pneumoniae; S. pneumoniae 21Q353, Clinical, i-MLSB): 32 µg/mL (≈ 43.6 µM) | MIC (S. pneumoniae; S. pneumoniae 21X435, Clinical): 0.03 µg/mL (≈ 0.0409 µM) | MIC (S. pneumoniae; S. pneumoniae ATCC49619): 0.03 µg/mL (≈ 0.0409 µM) | MIC (S. pyogenes; S. pyogenes 01-968, Clinical, i-ermB): 1 µg/mL (≈ 1.36 µM) | MIC (S. pyogenes; S. pyogenes 12-207, Clinical, mef): 16 µg/mL (≈ 21.8 µM) | MIC (S. pyogenes; S. pyogenes 21K003, Clinical, mef): 16 µg/mL (≈ 21.8 µM) | IC50 [2]: > 10 µM | IC50 (WT S. aureus ribosomes): 0.18 ± 0.03 µM | CC50 at 48 h [3]: > 100 µM
